Source: ChEMBL document CHEMBL1140040, “Synthesis and cytotoxic activity of some novel polycyclic gamma-butyrolactones” (Bioorg Med Chem Lett, 2008)

Assays:
SF-295 [1] = test: Cytotoxicity against human SF295 cells assessed as age growth inhibition at 10 uM after 48 hrs by sulforhodamine B assay; assay type: functional; conditions: SF-295, 48 h, read-out: GI
SK-OV-3 [2] = test: Cytotoxicity against human SKOV3 cells assessed as age growth inhibition at 10 uM after 48 hrs by sulforhodamine B assay; assay type: functional; conditions: SK-OV-3, 48 h, read-out: GI
COLO 205 [3] = test: Cytotoxicity against human COLO205 cells assessed as age growth inhibition at 50 uM after 48 hrs by sulforhodamine B assay; assay type: functional; conditions: COLO 205, 48 h, read-out: GI
HCT-15 [4] = test: Cytotoxicity against human HCT15 cells assessed as age growth inhibition at 50 uM after 48 hrs by sulforhodamine B assay; assay type: functional; conditions: HCT-15, 48 h, read-out: GI
A549 [5] = test: Cytotoxicity against human A549 cells assessed as age growth inhibition at 100 uM after 48 hrs by sulforhodamine B assay; assay type: functional; conditions: A549, 48 h, read-out: GI
DU-145 [6] = test: Cytotoxicity against human DU145 cells assessed as age growth inhibition at 50 uM after 48 hrs by sulforhodamine B assay; assay type: functional; conditions: DU-145, 48 h, read-out: GI
HEp-2 [7] = test: Cytotoxicity against human HEP2 cells assessed as age growth inhibition at 50 uM after 48 hrs by sulforhodamine B assay; assay type: functional; conditions: HEp-2, 48 h, read-out: GI
COLO 205 [8] = test: Cytotoxicity against human COLO205 cells assessed as age growth inhibition at 100 uM after 48 hrs by sulforhodamine B assay; assay type: functional; conditions: COLO 205, 48 h, read-out: GI
A549 [9] = test: Cytotoxicity against human A549 cells assessed as age growth inhibition at 50 uM after 48 hrs by sulforhodamine B assay; assay type: functional; conditions: A549, 48 h, read-out: GI
HEp-2 [10] = test: Cytotoxicity against human HEP2 cells assessed as age growth inhibition at 10 uM after 48 hrs by sulforhodamine B assay; assay type: functional; conditions: HEp-2, 48 h, read-out: GI
SK-OV-3 [11] = test: Cytotoxicity against human SKOV3 cells assessed as age growth inhibition at 100 uM after 48 hrs by sulforhodamine B assay; assay type: functional; conditions: SK-OV-3, 48 h, read-out: GI
SF-295 [12] = test: Cytotoxicity against human SF295 cells assessed as age growth inhibition at 100 uM after 48 hrs by sulforhodamine B assay; assay type: functional; conditions: SF-295, 48 h, read-out: GI
SK-OV-3 [13] = test: Cytotoxicity against human SKOV3 cells assessed as age growth inhibition at 50 uM after 48 hrs by sulforhodamine B assay; assay type: functional; conditions: SK-OV-3, 48 h, read-out: GI
IGROV-1 [14] = test: Cytotoxicity against human IGROV1 cells assessed as age growth inhibition at 10 uM after 48 hrs by sulforhodamine B assay; assay type: functional; conditions: IGROV-1, 48 h, read-out: GI
IGROV-1 [15] = test: Cytotoxicity against human IGROV1 cells assessed as age growth inhibition at 100 uM after 48 hrs by sulforhodamine B assay; assay type: functional; conditions: IGROV-1, 48 h, read-out: GI
HCT-15 [16] = test: Antiproliferative activity against human HCT15 cells after 48 hrs by sulforhodamine B assay; assay type: functional, cell-based; conditions: HCT-15, 48 h
DU-145 [17] = test: Cytotoxicity against human DU145 cells assessed as age growth inhibition at 100 uM after 48 hrs by sulforhodamine B assay; assay type: functional; conditions: DU-145, 48 h, read-out: GI
SF-295 [18] = test: Cytotoxicity against human SF295 cells assessed as age growth inhibition at 50 uM after 48 hrs by sulforhodamine B assay; assay type: functional; conditions: SF-295, 48 h, read-out: GI
COLO 205 [19] = test: Cytotoxicity against human COLO205 cells assessed as age growth inhibition at 10 uM after 48 hrs by sulforhodamine B assay; assay type: functional; conditions: COLO 205, 48 h, read-out: GI
COLO 205 [20] = test: Antiproliferative activity against human COLO205 cells after 48 hrs by sulforhodamine B assay; assay type: functional, cell-based; conditions: COLO 205, 48 h
HOP-62 [21] = test: Cytotoxicity against human HOP62 cells assessed as age growth inhibition at 10 uM after 48 hrs by sulforhodamine B assay; assay type: functional; conditions: HOP-62, 48 h, read-out: GI
SF-295 [22] = test: Antiproliferative activity against human SF295 cells after 48 hrs by sulforhodamine B assay; assay type: functional, cell-based; conditions: SF-295, 48 h
DU-145 [23] = test: Antiproliferative activity against human DU145 cells after 48 hrs by sulforhodamine B assay; assay type: functional, cell-based; conditions: DU-145, 48 h
IGROV-1 [24] = test: Cytotoxicity against human IGROV1 cells assessed as age growth inhibition at 50 uM after 48 hrs by sulforhodamine B assay; assay type: functional; conditions: IGROV-1, 48 h, read-out: GI
HCT-15 [25] = test: Cytotoxicity against human HCT15 cells assessed as age growth inhibition at 10 uM after 48 hrs by sulforhodamine B assay; assay type: functional; conditions: HCT-15, 48 h, read-out: GI
HOP-62 [26] = test: Cytotoxicity against human HOP62 cells assessed as age growth inhibition at 100 uM after 48 hrs by sulforhodamine B assay; assay type: functional; conditions: HOP-62, 48 h, read-out: GI
HEp-2 [27] = test: Cytotoxicity against human HEP2 cells assessed as age growth inhibition at 100 uM after 48 hrs by sulforhodamine B assay; assay type: functional; conditions: HEp-2, 48 h, read-out: GI
DU-145 [28] = test: Cytotoxicity against human DU145 cells assessed as age growth inhibition at 10 uM after 48 hrs by sulforhodamine B assay; assay type: functional; conditions: DU-145, 48 h, read-out: GI
HOP-62 [29] = test: Cytotoxicity against human HOP62 cells assessed as age growth inhibition at 50 uM after 48 hrs by sulforhodamine B assay; assay type: functional; conditions: HOP-62, 48 h, read-out: GI
HEp-2 [30] = test: Antiproliferative activity against human HEP2 cells after 48 hrs by sulforhodamine B assay; assay type: functional, cell-based; conditions: HEp-2, 48 h
A549 [31] = test: Antiproliferative activity against human A549 cells after 48 hrs by sulforhodamine B assay; assay type: functional, cell-based; conditions: A549, 48 h
A549 [32] = test: Cytotoxicity against human A549 cells assessed as age growth inhibition at 10 uM after 48 hrs by sulforhodamine B assay; assay type: functional; conditions: A549, 48 h, read-out: GI
IGROV-1 [33] = test: Antiproliferative activity against human IGROV1 cells after 48 hrs by sulforhodamine B assay; assay type: functional, cell-based; conditions: IGROV-1, 48 h
HCT-15 [34] = test: Cytotoxicity against human HCT15 cells assessed as age growth inhibition at 100 uM after 48 hrs by sulforhodamine B assay; assay type: functional; conditions: HCT-15, 48 h, read-out: GI
HOP-62 [35] = test: Antiproliferative activity against human HOP62 cells after 48 hrs by sulforhodamine B assay; assay type: functional, cell-based; conditions: HOP-62, 48 h
SK-OV-3 [36] = test: Antiproliferative activity against human SKOV3 cells after 48 hrs by sulforhodamine B assay; assay type: functional, cell-based; conditions: SK-OV-3, 48 h

SMILES: CC1(C)CCC[C@@]2(C)C1=C[C@H]1C(=O)O[C@H](c3ccc(Cl)cc3)[C@H]12
- inhibition of growth at 10 µM (SF-295 [1]): 20%
- inhibition of growth at 10 µM (SK-OV-3 [2]): 10%
- inhibition of growth at 50 µM (COLO 205 [3]): 24%
- inhibition of growth at 50 µM (HCT-15 [4]): 29%
- inhibition of growth at 100 µM (A549 [5]): 20%
- inhibition of growth at 50 µM (DU-145 [6]): 30%
- inhibition of growth at 50 µM (HEp-2 [7]): 18%
- inhibition of growth at 100 µM (COLO 205 [8]): 25%
- inhibition of growth at 50 µM (A549 [9]): 12%
- inhibition of growth at 10 µM (HEp-2 [10]): 8%
- inhibition of growth at 100 µM (SK-OV-3 [11]): 24%
- inhibition of growth at 100 µM (SF-295 [12]): 31%
- inhibition of growth at 50 µM (SK-OV-3 [13]): 14%
- inhibition of growth at 10 µM (IGROV-1 [14]): 1%
- inhibition of growth at 100 µM (IGROV-1 [15]): 16%
- IC50 (HCT-15 [16]): > 100 µM
- inhibition of growth at 100 µM (DU-145 [17]): 35%
- inhibition of growth at 50 µM (SF-295 [18]): 23%
- inhibition of growth at 10 µM (COLO 205 [19]): 22%
- IC50 (COLO 205 [20]): > 100 µM
- inhibition of growth at 10 µM (HOP-62 [21]): 27%
- IC50 (SF-295 [22]): > 100 µM
- IC50 (DU-145 [23]): > 100 µM
- inhibition of growth at 50 µM (IGROV-1 [24]): 15%
- inhibition of growth at 10 µM (HCT-15 [25]): 9%
- inhibition of growth at 100 µM (HOP-62 [26]): 38%
- inhibition of growth at 100 µM (HEp-2 [27]): 18%
- inhibition of growth at 10 µM (DU-145 [28]): 16%
- inhibition of growth at 50 µM (HOP-62 [29]): 29%
- IC50 (HEp-2 [30]): > 100 µM
- IC50 (A549 [31]): > 100 µM
- inhibition of growth at 10 µM (A549 [32]): 10%
- IC50 (IGROV-1 [33]): > 100 µM
- inhibition of growth at 100 µM (HCT-15 [34]): 30%
- IC50 (HOP-62 [35]): > 100 µM
- IC50 (SK-OV-3 [36]): > 100 µM

SMILES: CC1(C)CCC[C@@]2(C)C1=C[C@H]1C(=O)O[C@H](c3ccc(F)cc3)[C@H]12
- inhibition of growth at 10 µM (SF-295 [1]): 4%
- inhibition of growth at 10 µM (SK-OV-3 [2]): 6%
- inhibition of growth at 50 µM (COLO 205 [3]): 26%
- inhibition of growth at 50 µM (HCT-15 [4]): 34%
- inhibition of growth at 100 µM (A549 [5]): 51%
- inhibition of growth at 50 µM (DU-145 [6]): 0%
- inhibition of growth at 50 µM (HEp-2 [7]): 13%
- inhibition of growth at 100 µM (COLO 205 [8]): 32%
- inhibition of growth at 50 µM (A549 [9]): 45%
- inhibition of growth at 10 µM (HEp-2 [10]): 7%
- inhibition of growth at 100 µM (SK-OV-3 [11]): 41%
- inhibition of growth at 100 µM (SF-295 [12]): 15%
- inhibition of growth at 50 µM (SK-OV-3 [13]): 13%
- inhibition of growth at 10 µM (IGROV-1 [14]): 7%
- inhibition of growth at 100 µM (IGROV-1 [15]): 29%
- IC50 (HCT-15 [16]): > 100 µM
- inhibition of growth at 100 µM (DU-145 [17]): 35%
- inhibition of growth at 50 µM (SF-295 [18]): 10%
- inhibition of growth at 10 µM (COLO 205 [19]): 11%
- IC50 (COLO 205 [20]): > 100 µM
- inhibition of growth at 10 µM (HOP-62 [21]): 9%
- IC50 (SF-295 [22]): > 100 µM
- IC50 (DU-145 [23]): > 100 µM
- inhibition of growth at 50 µM (IGROV-1 [24]): 20%
- inhibition of growth at 10 µM (HCT-15 [25]): 13%
- inhibition of growth at 100 µM (HOP-62 [26]): 27%
- inhibition of growth at 100 µM (HEp-2 [27]): 23%
- inhibition of growth at 10 µM (DU-145 [28]): 0%
- inhibition of growth at 50 µM (HOP-62 [29]): 14%
- IC50 (HEp-2 [30]): > 100 µM
- IC50 (A549 [31]): 79.3 µM
- inhibition of growth at 10 µM (A549 [32]): 2%
- IC50 (IGROV-1 [33]): > 100 µM
- inhibition of growth at 100 µM (HCT-15 [34]): 38%
- IC50 (HOP-62 [35]): > 100 µM
- IC50 (SK-OV-3 [36]): > 100 µM
